Test results taken from patent EP0066406A1, “Beta-lactam antibiotics” (BEECHAM GROUP PLC, priority 1981, dated 1982).
Like-named read-outs stand apart in the source and are kept apart here.

Columns and labels:
Assay in all cases: MIC determination (agar/broth)
Format in all cases: cell-based
S. marcescens US 32 = conditions: Serratia marcescens, US32, AGAR
E. cloacae N1 = conditions: Enterobacter cloacae, AGAR
P. mirabilis 889 = conditions: Proteus mirabilis, AGAR
S. pyogenes CN 10 = conditions: Streptococcus pyogenes, CN10, AGAR
N. catarrhalis 1502 = conditions: AGAR
Ps. aeruginosa Dalgleish = conditions: Pseudomonas aeruginosa; AGAR; Ps. aeruginosa Dalgleish 10^-2
P. mirabilis C 977 = conditions: Proteus mirabilis, C977, AGAR
E. coli JT 4 = conditions: Escherichia coli, JT4, AGAR
E. coli NCTC 10418 = test system: E. coli NCTC 10418
S. aureus Oxford = test system: S. aureus Oxford
S. aureus Russell = test system: S. aureus Russell
B. subtilis = conditions: Bacillus subtilis, AGAR
[1] = test system: Ps. aeruginosa NCTC 10662; conditions: Pseudomonas aeruginosa
P. rettgeri = conditions: Providencia rettgeri, AGAR
E. coli JT 425 = conditions: Escherichia coli, JT425, AGAR
P. morganii = conditions: Morganella morganii, AGAR
S. faecalis I = conditions: Enterococcus faecalis, AGAR
K. aerogenes A = conditions: Klebsiella aerogenes
E. coli ESS = conditions: Escherichia coli, AGAR
[2] = Staphylococcus aureus, AGAR, read-out: MIC

CCN1CCN(C(=O)NC(C(=O)N[C@@H]2C(=O)N3[C@@H]2SC(C)(C)[C@@H]3C(=O)O)c2csc(N)n2)C(=O)C1=O (mixture of isomers) [Example 1, 6-[DL-a-(4-Ethyl-2,3-dioxopiperazin-l-carbonylamino)-2-aminothiazol-4-acetamido]penicillanic acid]
MIC (S. marcescens US 32): 2.5 µg/mL
MIC (E. cloacae N1): 0.5 µg/mL
MIC (P. mirabilis 889): > 100 µg/mL
MIC (S. pyogenes CN 10): 0.1 µg/mL
MIC (N. catarrhalis 1502): < 0.02 µg/mL
MIC (Ps. aeruginosa Dalgleish): > 100 µg/mL
MIC (P. mirabilis C 977): 0.2 µg/mL
MIC (E. coli JT 4): > 100 µg/mL
MIC (E. coli NCTC 10418; BROTH): 1.0 µg/mL
MIC (E. coli NCTC 10418; Escherichia coli, NCTC10418, AGAR, read-out: MIC): 1 µg/mL
MIC (S. aureus Oxford; BROTH): 1.0 µg/mL
MIC (S. aureus Oxford; [2]): 1 µg/mL
MIC (S. aureus Russell; BROTH): 100 µg/mL
MIC (S. aureus Russell; [2]): 100 µg/mL
MIC (B. subtilis): 2.5 µg/mL
MIC ([1]; NCTC10662, AGAR, Ps. aeruginosa NCTC 10662): 5 µg/mL
MIC ([1]; NCTC10662, AGAR, Ps. aeruginosa NCTC 10662 10^-2): 2.5 µg/mL
MIC ([1]; NCTC10662, BROTH, Ps. aeruginosa NCTC 10662): 10 µg/mL
MIC ([1]; NCTC10662, BROTH, Ps. aeruginosa NCTC 10662 10^-2): 25 µg/mL
MIC (P. rettgeri): 2.5 µg/mL
MIC (E. coli JT 425): 25 µg/mL
MIC (P. morganii): 0.5 µg/mL
MIC (S. faecalis I): 25 µg/mL
MIC (K. aerogenes A; AGAR): 10 µg/mL
MIC (K. aerogenes A; BROTH): 25 µg/mL
MIC (E. coli ESS): < 0.02 µg/mL
